This note sets out measurements from publication PMC7696671, “P2Y2 and P2X4 Receptors Mediate Ca^2+ Mobilization in DH82 Canine Macrophage Cells” (International Journal of Molecular Sciences, 2020).

Format in all cases: cell-based
Test [1] concerns the target T1, P2Y2 receptor (Canis lupus, UniProt A0A8I3MZ62).
T1 construct: gene P2RY2; endogenous receptor in DH82 canine macrophage cells
Kind of test: Fura-2 Ca2+ assay in DH82 cells, inhibition of the response to […] UTP (peak).

The target in test [2] is T1, P2Y2 receptor. Kind of test: Fura-2 Ca2+ assay in DH82 cells, agonist peak response; blocked by AR-C118925 in Ca2+-free solution.
Test [3] has as its target T1, P2Y2 receptor. Put plainly: Fura-2 Ca2+ assay in DH82 cells, agonist peak response.

Structures are written as SMILES.

T1 sequence (A0A8I3MZ62 1-377): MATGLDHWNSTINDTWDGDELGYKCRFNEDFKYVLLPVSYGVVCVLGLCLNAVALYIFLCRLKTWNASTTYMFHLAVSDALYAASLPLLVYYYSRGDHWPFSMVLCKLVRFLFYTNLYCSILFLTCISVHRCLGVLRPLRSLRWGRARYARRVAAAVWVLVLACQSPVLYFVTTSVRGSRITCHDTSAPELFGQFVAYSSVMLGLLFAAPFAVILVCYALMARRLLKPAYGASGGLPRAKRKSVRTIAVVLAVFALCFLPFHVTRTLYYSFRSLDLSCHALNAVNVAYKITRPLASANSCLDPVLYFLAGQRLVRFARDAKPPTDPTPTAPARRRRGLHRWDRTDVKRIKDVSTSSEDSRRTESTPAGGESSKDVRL

On P2Y2 receptor [1], `Cc1ccc(C(=O)Nc2ccc(S(=O)(=O)O)c3cc(S(=O)(=O)O)cc(S(=O)(=O)O)c23)cc1NC(=O)c1cccc(NC(=O)Nc2cccc(C(=O)Nc3cc(C(=O)Nc4ccc(S(=O)(=O)O)c5cc(S(=O)(=O)O)cc(S(=O)(=O)O)c45)ccc3C)c2)c1` [suramin] gave an IC50 of 3.70 ± 0.05 pIC50.

As for `Nc1ncnc2c1ncn2[C@@H]1O[C@H](COP(=O)(O)OP(=O)(O)OP(=O)(O)O)[C@@H](O)[C@H]1O` [ATP], the “Peak Ca^2+ Response / pEC50” value at P2Y2 receptor [2] is listed as 5.88 ± 0.05 pEC50. For `O=c1ccn([C@@H]2O[C@H](CO[P@@](=O)(O)O[P@@](=O)(O)OP(=O)(O)O)[C@@H](O)[C@H]2O)c(=O)[nH]1` [UTP], the “Peak Ca^2+ Response / pEC50” value on P2Y2 receptor [3] is 6.16 ± 0.09 pEC50. On P2Y2 receptor [1], `Cc1ccc2c(c1)C=Cc1cc(C)ccc1C2c1cn(Cc2ccc(C(=O)Nc3nn[nH]n3)o2)c(=O)[nH]c1=S` [AR-C118925] showed an IC50 of 6.61 ± 0.09 pIC50.
